Assay results from US20250270213A1, “PI3Ka INHIBITORS” (Synnovation Therapeutics, Inc., priority 2022, published 2025).

System: T47D (PIK3CA H1047R) cells
Assay: pS473 AKT assay with 2.5% FBS, T47D cells
Assay type: cell-based
Settings: Homo sapiens, pSer473 AKT, DMEM with 2.5% FBS, 2 h treatment, read-out: T47D_IC50
In short: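 T47D (PIK3CA H1047R) cells were switched to DMEM with 2.5% FBS and exposed to compounds for 2 h. After paraformaldehyde fixation, pSer473 AKT was detected by in-cell ELISA (rabbit primary, HRP anti-rabbit secondary, chemiluminescence); IC50 values were fitted from the concentration series.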

Structure (SMILES)	IC50
CCn1ncc2c3c(C(CN4CCN(C)CC4)Nc4ccc(Cl)nc4-c4cnn(C)c4)cc(C)cc3c(=O)n(C)c21 (stereo not shown) [Compound 334, 9-(1-((6-Chloro-2-(1-methyl-1H-pyrazol-4-yl)pyridin-3-yl)amino)-2-(4-methylpiperazin-1-yl)ethyl)-3-ethyl-4,7-dimethyl-3,4-dihydro-5H-pyrazolo[3,4-c]isoquinolin-5-one]	< 1000 nM
Cc1cc(C(C)Nc2ccc(Cl)nc2-c2cnn(C3CCCN(C)C3)c2)c2c(c1)c(=O)n1c3c2cnn3CCC1 (stereo not shown) [Compound 302]	< 1000 nM
CCn1ncc2c3c(C(C)Nc4ccccc4-c4cnn(CCO)c4)cc(C)cc3c(=O)n(C)c21 (stereo not shown) [Compound 56, 3-ethyl-9-(1-((2-(1-(2-hydroxyethyl)-1H-pyrazol-4-yl)phenyl)amino)ethyl)-4,7-dimethyl-3,4-dihydro-5H-pyrazolo[3,4-c]isoquinolin-5-one]	< 1000 nM
Cc1cc(C(C)Nc2ccc(Cl)nc2-c2nnn(C)n2)c2c(c1)c(=O)n1c3c2cnn3CCC1 (stereo not shown) [Compound 298, 10-(1-((6-chloro-2-(2-methyl-2H-tetrazol-5-yl)pyridin-3-yl)amino)ethyl)-8-methyl-4,5-dihydro-3H,6H-2,2a,5a-triazaaceanthrylen-6-one]	< 1000 nM
Cc1cc(C(C)Nc2ccccc2C(=O)O)c2c(c1)c(=O)n(C)c1c2cnn1C (stereo not shown) [Compound I-16, 2-((1-(3,4,7-Trimethyl-5-oxo-4,5-dihydro-3H-pyrazolo[3,4-c]isoquinolin-9-yl)ethyl)amino)benzoic acid]	< 1000 nM
[2H]C([2H])([2H])n1c(=O)c2cc(C)cc(C(C)Nc3ccc(Cl)nc3-c3cnn(C)c3)c2c2cnn(C3CCN(C(=O)C4(C#N)CC4)C3)c21 (stereo not shown) [Compound 157, 1-(3-(9-(1-((6-chloro-2-(1-methyl-1H-pyrazol-4-yl)pyridin-3-yl)amino)ethyl)-7-methyl-4-(methyl-d3)-5-oxo-4,5-dihydro-3H-pyrazolo[3,4-c]isoquinolin-3-yl)pyrrolidine-1-carbonyl)cyclopropane-1-carbonitrile]	< 1000 nM
CCn1ncc2c3c(C(C)Nc4ccc(Cl)nc4-c4ccc(=O)n(C)c4)cc(C)cc3c(=O)n(C)c21 (stereo not shown) [Compound 41, 9-(1-((6-chloro-1′-methyl-6′-oxo-1′,6′-dihydro-[2,3′-bipyridin]-3-yl)amino)ethyl)-3-ethyl-4,7-dimethyl-3,4-dihydro-5H-pyrazolo[3,4-c]isoquinolin-5-one]	< 1000 nM
CCn1ncc2c3c(C(C)Nc4ccc(Cl)nc4-c4cnn(C)c4)cc(C)cc3c(=O)n(C)c21 (stereo not shown) [Compound 50, 9-(1-((6-chloro-2-(1-methyl-1H-pyrazol-4-yl)pyridin-3-yl)amino)ethyl)-3-ethyl-4,7-dimethyl-3,4-dihydro-5H-pyrazolo[3,4-c]isoquinolin-5-one]	< 1000 nM
Cc1cc(C(C)Nc2ccc(Cl)nc2-c2noc(=O)[nH]2)c2c(c1)c(=O)n(C)c1c2cnn1C(C)C (stereo not shown) [Compound 62, 3-(6-Chloro-3-((1-(3-isopropyl-4,7-dimethyl-5-oxo-4,5-dihydro-3H-pyrazolo[3,4-c]isoquinolin-9-yl)ethyl)amino)pyridin-2-yl)-1,2,4-oxadiazol-5(4H)-one]	< 1000 nM
Cc1cc(C(C)Nc2ccc(Cl)nc2-c2ncn(C)n2)c2c(c1)c(=O)n(CC(F)F)c1c(C(=O)N(C)C)ncn21 (stereo not shown) [Compound 123, 9-(1-((6-chloro-2-(1-methyl-1H-1,2,4-triazol-3-yl)pyridin-3-yl)amino)ethyl)-4-(2,2-difluoroethyl)-N,N,7-trimethyl-5-oxo-4,5-dihydroimidazo[1,5-a]quinazoline-3-carboxamide]	< 1000 nM
Cc1cc(C(C)Nc2ccc(Cl)nc2-c2cccnc2)c2c(c1)c(=O)n(C)c1c2cnn1C1CCN(C)CC1 (stereo not shown) [Compound 169, 9-[1-[[6-chloro-2-(3-pyridyl)-3-pyridyl]amino]ethyl]-4,7-dimethyl-3-(1-methyl-4-piperidyl)pyrazolo[3,4-c]isoquinolin-5-one]	< 1000 nM
CNC(=O)c1ccc(-c2nc(C)ccc2NC(C)c2cc(C)cc3c(=O)n(C)c4c(cnn4C4CCN(C)CC4)c23)cn1 (stereo not shown) [Compound 170]	< 1000 nM
Cc1cc(C(C)Nc2ccc(C)nc2C(=O)O)c2c(c1)c(=O)n(C)c1c(C)ncn21 (stereo not shown) [Compound I-8, 6-Methyl-3-((1-(3,4,7-trimethyl-5-oxo-4,5-dihydroimidazo[1,5-a]quinazolin-9-yl)ethyl)amino)picolinic acid]	< 1000 nM
Cc1cc(C(C)Nc2ccc(Cl)nc2-c2ncn(C)n2)c2c(c1)c(=O)n(C)c1c2cnn1C1CCN(Cc2nccn2C)CC1 (stereo not shown) [Compound 178, 9-(1-((6-chloro-2-(1-methyl-1H-1,2,4-triazol-3-yl)pyridin-3-yl)amino)ethyl)-4,7-dimethyl-3-(1-((1-methyl-1H-imidazol-2-yl)methyl)piperidin-4-yl)-3,4-dihydro-5H-pyrazolo[3,4-c]isoquinolin-5-one]	< 1000 nM

Results, then the molecule that gave them:

IC50	Structure (SMILES)
< 1000 nM	Cc1cc(C(C)Nc2ccc(Cl)nc2-c2nnn(C)n2)c2c(c1)c(=O)n(C)c1c2cnn1CCO (stereo not shown) [Example 251, 9-(1-((6-chloro-2-(2-methyl-2H-tetrazol-5-yl)pyridin-3-yl)amino)ethyl)-3-(2-hydroxyethyl)-4,7-dimethyl-3,4-dihydro-5H-pyrazolo[3,4-c]isoquinolin-5-one]
< 1000 nM	Cc1cc(C(C)Nc2ccc(Cl)nc2-c2cnn(C)c2)c2c(c1)c(=O)n(C)c1c2cnn1C1CCCN(CCO)C1 (stereo not shown) [Example 280, 9-[1-[[6-chloro-2-(1-methylpyrazol-4-yl)-3-pyridyl]amino]ethyl]-3-[1-(2-hydroxyethyl)-3-piperidyl]-4,7-dimethyl-pyrazolo[3,4-c]isoquinolin-5-one]
< 1000 nM	Cc1cc(C(C)Nc2ccc(Cl)nc2-c2cnn(C)c2)c2c(c1)c(=O)n(C)c1c2cnn1C1CCCN(C)C1 (stereo not shown) [Example 279, 9-[1-[[6-chloro-2-(1-methylpyrazol-4-yl)-3-pyridyl]amino]ethyl]-4,7-dimethyl-3-(1-methyl-3-piperidyl)pyrazolo[3,4-c]isoquinolin-5-one]
< 1000 nM	Cc1cc(C(C)Nc2ccc(Cl)nc2-c2cnn(C)c2)c2c(c1)c(=O)n(C)c1c2cnn1CCN1CCOCC1 (stereo not shown) [Example 263, 9-[1-[[6-Chloro-2-(1-methylpyrazol-4-yl)-3-pyridyl]amino]ethyl]-4,7-dimethyl-3-(2-morpholinoethyl)pyrazolo[3,4-c]isoquinolin-5-one]
< 1000 nM	CCn1ncc2c3c(C(C)Nc4ccc(F)cc4C(=O)O)cc(C)cc3c(=O)n(CC)c21 (stereo not shown) [Compound I-24, 2-((1-(3,4-Diethyl-7-methyl-5-oxo-4,5-dihydro-3H-pyrazolo[3,4-c]isoquinolin-9-yl)ethyl)amino)-5-fluorobenzoic acid]
< 1000 nM	Cc1cc(C(C)Nc2ccc(Cl)nc2C(=O)O)c2c(c1)c(=O)n(C)c1c2cnn1C (stereo not shown) [Compound I-17, 6-Chloro-3-((1-(3,4,7-trimethyl-5-oxo-4,5-dihydro-3H-pyrazolo[3,4-c]isoquinolin-9-yl)ethyl)amino)picolinic acid]
< 1000 nM	Cc1cc(C(C)Nc2ccc(Cl)nc2-c2cnn(C)c2)c2c(c1)c(=O)n(C)c1c2cnn1C1CCN(C(=O)CO)CC1 (stereo not shown) [Example 193, 9-[1-[[6-Chloro-2-(1-methylpyrazol-4-yl)-3-pyridyl]amino]ethyl]-3-[1-(2-hydroxyacetyl)-4-piperidyl]-4,7-dimethyl-pyrazolo[3,4-c]isoquinolin-5-one]
< 1000 nM	Cc1cc(C(C)Nc2ccc(C)nc2-c2cnn(C)c2)c2c(c1)c(=O)n(C)c1c2cnn1CCO (stereo not shown) [Example 249, 3-(2-hydroxyethyl)-4,7-dimethyl-9-(1-((6-methyl-2-(1-methyl-1H-pyrazol-4-yl)pyridin-3-yl)amino)ethyl)-3,4-dihydro-5H-pyrazolo[3,4-c]isoquinolin-5-one]
< 1000 nM	CCn1ncc2c3c(C(C)Nc4ccc(Cl)nc4-c4ccc(C(=O)NC)nc4)cc(C)cc3c(=O)n(CC(F)F)c21 (stereo not shown) [Example 240, 6-chloro-3-((1-(4-(2,2-difluoroethyl)-3-ethyl-7-methyl-5-oxo-4,5-dihydro-3H-pyrazolo[3,4-c]isoquinolin-9-yl)ethyl)amino)-N-methyl-[2,3′-bipyridine]-6′-carboxamide]
< 1000 nM	CNC(=O)c1ccc(-c2nc(Cl)ccc2NC(C)c2cc(C)cc3c(=O)n(C)c4c(cnn4CCN4CCOCC4)c23)cc1F (stereo not shown) [Example 266, 4-(6-chloro-3-((1-(4,7-dimethyl-3-(2-morpholinoethyl)-5-oxo-4,5-dihydro-3H-pyrazolo[3,4-c]isoquinolin-9-yl)ethyl)amino)pyridin-2-yl)-2-fluoro-N-methylbenzamide]
< 1000 nM	CNC(=O)c1ccc(-c2nc(Cl)ccc2OC(C)c2cc(C)cc3c(=O)n(C)c4c(cnn4C4CCN(C(C)=O)CC4)c23)cn1 (stereo not shown) [Example 283, 5-[3-[1-[3-(1-Acetyl-4-piperidyl)-4,7-dimethyl-5-oxo-pyrazolo[3,4-c]isoquinolin-9-yl]ethoxy]-6-chloro-2-pyridyl]-N-methyl-pyridine-2-carboxamide]
< 1000 nM	CCn1ncc2c3c(C(C)Nc4ccc(Cl)nc4-c4cncnc4)cc(C)cc3c(=O)n(CC(F)F)c21 (stereo not shown) [Example 238, 9-(1-((6-chloro-2-(pyrimidin-5-yl)pyridin-3-yl)amino)ethyl)-4-(2,2-difluoroethyl)-3-ethyl-7-methyl-3,4-dihydro-5H-pyrazolo[3,4-c]isoquinolin-5-one]
< 1000 nM	Cc1cc(C(C)Nc2ccc(Cl)nc2-c2nnco2)c2c(c1)c(=O)n(C)c1c2cnn1CCO (stereo not shown) [Example 250, 9-(1-((6-chloro-2-(1,3,4-oxadiazol-2-yl)pyridin-3-yl)amino)ethyl)-3-(2-hydroxyethyl)-4,7-dimethyl-3,4-dihydro-5H-pyrazolo[3,4-c]isoquinolin-5-one]
< 1000 nM	CCOC(=O)N1CCC(n2cc3c4c(C(C)Nc5ccc(Cl)nc5-c5cnn(C)c5)cc(C)cc4c(=O)n(C)c3n2)CC1 (stereo not shown) [Example 210, ethyl 4-(9-(1-((6-chloro-2-(1-methyl-1H-pyrazol-4-yl)pyridin-3-yl)amino)ethyl)-4,7-dimethyl-5-oxo-4,5-dihydro-2H-pyrazolo[3,4-c]isoquinolin-2-yl)piperidine-1-carboxylate]
